Patent US11142533B2, “Macrocycles for use in treating disease” (TURNING POINT THERAPEUTICS, INC., priority 2019, dated 2021)
In brackets after ≈: the same amount, converted by molar mass. Where two headings read alike, the source gives them in different places.

Legend:
[1] = Liver microsomal stability; format: in vitro ADME; conditions: pH 7.4, 1 μM compound, 0.5 mg/mL liver microsome protein
Experimental: The test compound stock solution was prepared by weighing 1.07 mg and dissolving in 0.261 mL of DMSO to achieve the concentration of 10 mM. Working solution of the test compound was prepared by diluting stock solution using DMSO to yield the concentration of 300 μM.
The assay was carried out in 96-well microtiter plates. In each well, the reaction mixture (25 μL) contained the test compound at the final concentration of 1 μM, 0.5 mg/mL liver microsome protein, and 1 mM NADPH in 100 mM potassium phosphate, pH 7.4 buffer with 3.3 mM MgCl2. The mixtures were incubated in duplicate at 37° C. for 0, 15, 30 or 60 minutes, and 150 μL of quench solution (acetonitrile with 0.1% formic acid) with internal standard (bucetin for positive ESI mode) was added into each well of reaction to terminate the reaction. The plates were then sealed and centrifuged at 4° C. for 15 minutes at 4000 rpm. The resulting supernatant was transferred to fresh plates for LC-MS/MS analysis of the test compounds. Verapamil was used as the positive control to validate the assay system.
All samples were analyzed with LC-MS/MS using an AB Sciex API 4000 instrument, coupled to a Shimadzu LC-20AD LC Pump system. Analytical samples were separated using a Waters Atlantis T3 dC18 reverse phase HPLC column (20 mm×2.1 mm) at a flow rate of 0.5 mL/min. The mobile phase consisted of 0.1% formic acid in water (solvent A) and 0.1% formic acid in acetonitrile (solvent B).
The extent of metabolism was calculated based on the disappearance of the test compound, compared to its initial concentration. The initial rates of clearance of test compounds were calculated using linear regression plot of semi-log % remaining of compounds versus time. The elimination rate constant (equals to negative slope) of the linear regression plot was then used to determine t112 and the intrinsic clearance (CLInt) using the following formula: k=−slope t1/2=0.693/k CLint=k/Cprotein
Where Cprotein (mg/mL) is the microsomal protein concentration in the incubation system.

[2] = Solubility test in phosphate buffer; format: physicochemical; conditions: aqueous buffer, thermodynamic from solid; phosphate buffer pH 7.4, room temperature
Experimental: Aliquot of 1.035 mL phosphate buffer (PB) (pH 7.4) was added into 2.07 mg of the test compound (for a 2 mg·mL^−1 upper limiting solubility determination) in a 1.5 mL tubes. The mixture was ultrasonicly treated for 10 min and rotated on rotator at room temperature for more than 8 hr. After rotation, the tube was ultrasonicly treated for 10 min and centrifuged at 13000 rpm for 15 min. 0.3 mL of the supernatant was transferred into a 0.6 mL tube and discarded after rotated for 5 min for rinsing, then about 0.6 mL of the residual supernatant was transferred into the rinsed tube and centrifuged again at 13000 rpm for 15 min. The supernatant after every centrifugation was appropriately diluted and transferred for LC-MS/MS analysis where a standard curve was constructed with 7 concentration levels (2, 4, 10, 20, 40, 100 and 200 μg mL^−1) and used for the quantitation of the analyte in PB.

[3] = biological target: KM12 (TPM3-TRKA) (Homo sapiens, UniProt P04629); test: Cell proliferation assay (CellTiter-Glo)
Chain of KM12 (TPM3-TRKA) (P04629 with tags, fused parts or gaps): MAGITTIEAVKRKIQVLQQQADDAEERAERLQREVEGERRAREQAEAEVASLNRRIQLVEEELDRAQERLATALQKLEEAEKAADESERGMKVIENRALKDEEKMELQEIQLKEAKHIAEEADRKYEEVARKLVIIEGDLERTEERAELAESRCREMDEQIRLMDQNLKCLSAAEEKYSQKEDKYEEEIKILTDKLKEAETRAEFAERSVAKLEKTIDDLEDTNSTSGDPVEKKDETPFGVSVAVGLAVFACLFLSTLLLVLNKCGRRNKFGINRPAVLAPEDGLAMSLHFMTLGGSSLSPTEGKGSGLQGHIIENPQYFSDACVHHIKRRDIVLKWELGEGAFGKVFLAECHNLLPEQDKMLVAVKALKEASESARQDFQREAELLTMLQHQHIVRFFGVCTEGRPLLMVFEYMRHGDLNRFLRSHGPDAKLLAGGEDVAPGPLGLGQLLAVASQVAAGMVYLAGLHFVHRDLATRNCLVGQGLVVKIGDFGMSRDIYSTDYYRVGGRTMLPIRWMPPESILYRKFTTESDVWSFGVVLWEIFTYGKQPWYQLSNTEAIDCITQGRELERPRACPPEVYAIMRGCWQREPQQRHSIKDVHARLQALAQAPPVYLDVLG

[4] = biological target: T1, Ba/F3 cell-derived tumors with the EML4-ALK G1202R fusion (Homo sapiens, UniProt Q9UM73, G1202R); conditions: after 7 days of treatment
T1 sequence (Q9UM73 with tags, fused parts or gaps G1202R): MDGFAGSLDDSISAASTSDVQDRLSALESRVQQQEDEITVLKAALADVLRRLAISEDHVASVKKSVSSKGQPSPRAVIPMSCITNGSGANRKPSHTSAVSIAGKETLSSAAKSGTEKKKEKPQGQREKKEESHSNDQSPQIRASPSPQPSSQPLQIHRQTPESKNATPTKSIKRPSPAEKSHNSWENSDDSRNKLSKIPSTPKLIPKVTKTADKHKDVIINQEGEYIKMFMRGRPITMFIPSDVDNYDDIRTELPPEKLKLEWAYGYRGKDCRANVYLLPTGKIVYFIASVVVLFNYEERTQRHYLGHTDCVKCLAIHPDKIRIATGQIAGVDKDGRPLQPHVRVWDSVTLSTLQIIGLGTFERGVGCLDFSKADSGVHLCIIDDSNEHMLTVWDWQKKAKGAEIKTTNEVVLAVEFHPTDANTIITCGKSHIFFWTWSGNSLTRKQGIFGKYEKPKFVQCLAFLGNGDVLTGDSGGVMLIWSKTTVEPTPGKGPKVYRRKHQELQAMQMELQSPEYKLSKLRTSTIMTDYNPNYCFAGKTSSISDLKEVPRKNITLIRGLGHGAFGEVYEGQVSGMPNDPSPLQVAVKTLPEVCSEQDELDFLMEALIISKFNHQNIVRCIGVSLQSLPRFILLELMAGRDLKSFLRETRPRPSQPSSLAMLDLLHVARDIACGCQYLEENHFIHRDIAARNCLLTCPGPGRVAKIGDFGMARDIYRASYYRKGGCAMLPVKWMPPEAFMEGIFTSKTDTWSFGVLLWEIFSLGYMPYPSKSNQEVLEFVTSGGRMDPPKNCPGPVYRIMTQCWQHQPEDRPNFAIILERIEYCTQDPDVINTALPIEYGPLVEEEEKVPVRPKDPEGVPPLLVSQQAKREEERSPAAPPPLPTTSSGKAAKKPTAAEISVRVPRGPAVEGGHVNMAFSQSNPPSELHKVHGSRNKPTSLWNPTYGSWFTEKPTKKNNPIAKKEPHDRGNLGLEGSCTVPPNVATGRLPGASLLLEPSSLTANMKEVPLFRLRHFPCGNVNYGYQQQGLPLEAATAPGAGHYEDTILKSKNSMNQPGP

[5] = Mouse pharmacokinetic study; format: in vivo; conditions: single oral dose (dose level not given), plasma
Experimental: To prepare 1 L of the vehicle solution (0.5% CMC and 1.0% Tween 80), 10 g of Tween 80 was mixed with 985 mL of water into a 1 L bottle. The mixture was stirred until Tween 80 was completely dissolved. With continued stirring, 5 g of CMC was very slowly sprinkled into the solution. Stirring was continued until all CMC was dissolved, which might take several hr. The resulting vehicle solution was stored at 4° C.
The compound was suspended in the vehicle solution and the mice were orally administrated with a single dose of the compound at the selected dose level. The blood samples were collected according to the defined time table into tubes containing K2-EDTA, followed by gentle mixing to assure distribution of the anti-coagulant. Immediately after the blood sample was collected and mixed, it was placed on ice. The samples were then centrifuged at 4° C. for 10 minutes at 5,000 RPM. The plasma was harvested into pre-labeled tubes and stored at −80° C. until analyzed by LC-MS/MS.

[6] = female, mouse, liver microsomes

Row | SMILES | microsomal CLint at 1 µM [1, 6] [µL/min/mg] | microsomal CLint at 1 µM ([1]; female, rat, liver microsomes) [µL/min/mg] | microsomal CLint at 1 µM ([1]; human, pooled liver microsomes) [µL/min/mg] | solubility [2] [µg/mL] | IC50 [3] [nM] | Tumor growth inhibition (TGI) ([4]; 2 mg/kg BID oral) [%] | Tumor growth inhibition (TGI) ([4]; 5 mg/kg BID oral) [%] | Tumor growth inhibition (TGI) ([4]; 10 mg/kg BID oral) [%] | body weight ([4]; 2, 5, 10 mg/kg BID) | AUC [5] [ng·h/mL] | Cmax [5] [ng/mL] | Tmax [5] [h] | Tumor growth inhibition (TGI) ([4]; 3 mg/kg BID oral) [%] | body weight ([4]; 3 and 10 mg/kg BID)
1 | CC1(C)COc2ccc(F)cc2CN2c3nc4c(cnn4cc3OC[C@H]2C(F)F)C(=O)N1 [Compound 1, (4S)-4-(Difluoromethyl)-8-fluoro-13,13-dimethyl-3,4,13,14-tetrahydro-6H-18,1-(metheno)[1,4]oxazino[3,4-i]pyrazolo[4,3-f][1,4,8,10]benzoxatriazacyclotridecin-15(12H)-one] | 11 | 1.5 | 8.3 | 3.3 (≈ 7.38 µM) | < 0.2 | 64 | 120 | 200 | no body weight loss | 11900 | 1750 | 2 |  | 
2 | O=C1NCC2(CC2)COc2ccc(F)cc2CN2c3nc4c1cnn4cc3OC[C@H]2C(F)F [Compound 2, (16′S)-16′-(Difluoromethyl)-12′-fluoro-4′H,5′H,6′H,8′H,14′H,16′H,17′H-spiro[cyclopropane-1,7′-[1,19](metheno)[1,4]oxazino[3,4-j]pyrazolo[4,3-g][1,5,9,11]benzoxatriazacyclotetradecin]-4′-one] | 25 | 3.5 | 8.8 | 2.6 (≈ 5.66 µM) | < 0.2 |  |  | 77 |  | 14600 | 2510 | 2 | 51 | no body weight loss
